Results reported in patent US8389544B2, “Isoquinolone compounds as subtype-selective agonists for melatonin receptors MT1 and MT2” (The Hong Kong University of Science and Technology, priority 2007, dated 2013).

Experiments:
MT1/293 = assay: MTT cytotoxicity assay, MT1/293 cells; assay type: cell-based; conditions: percentage of untreated control cells
Description: (§1) This assay evaluates the cytotoxic effects of the novel isoquinolone compounds based on the cellular viability under chronic treatments. Viable cells but not dead cells can turn the substrate into a colored product, which yields higher absorbance. […] A low percentage indicates low cytoviability (or high cytotoxicity).
(§2) 5. Cytotoxicity Test Using MTT Assay
(§3) Cells were seeded into clear 96-well plate at an appropriate density in 100 μl growth medium and were allowed to grow overnight. The novel isoquinolone compounds were diluted to desired concentrations using fresh growth medium, and these dilutions were used to replace the growth media in each well. After incubating for 24-96 h, 10 μl of the MTT labeling reagent (Roche) was added to each well and the cells were incubated in a CO2 incubator for 4 h. 100 μl solubilization buffer was then added into each well and incubated overnight for complete solubilization of the purple formazan crystals. […] Each condition was performed in triplicate in every experiment and the results were expressed as % of blank control±SD.

MT2/293 = assay: MTT cytotoxicity assay, MT2/293 cells; assay type: cell-based; conditions: percentage of untreated control cells
Description: as §1, §2, §3

MT1 receptor [1] = molecular target: T1, MT1 receptor (Homo sapiens, UniProt P48039); assay: Competitive [3H]melatonin binding assay, MT1; design: expressed in transfected cells; conditions: displacement of 1 nM [3H]melatonin, HEK-293 cells; log value, negative; NSB = No significant binding
Description: Competitive ligand binding assays were performed to examine the receptor binding characteristics of the novel isoquinolone compounds. The assay measures the ability of the novel isoquinolone compounds to bind and displace the radiolabelled endogenous ligand, [^3H]melatonin. Increasing concentrations of the novel compounds are added to displace the [^3H]melatonin-bound to MT1 or MT2 receptor-expressing cells.
4. Competitive Binding Assay
The ability of compounds to bind to MT1 and/or MT2 receptors is determined using radioligand binding assays. […] 48 hours following transfection, cells are harvested in binding buffer (50 mM Tris-HCl, 2 mM MgCl2, 1 mM EDTA, pH 7.4). 100,000 cells are incubated with 1 nM [^3H] melatonin (specific activity: 83 Ci/mmol; GE Healthcare) and appropriate concentrations (0.1 nM to 1 μM) of unlabelled ligands in a total volume of 100 μl in 96-well plates (PerkinElmer Life And Analytical Sciences, Inc., Boston, Mass.) for 2 hours at room temperature. Reactions are terminated by rapid filtration through a 96-well cell harvester onto 96-well GF/C filter mats. Filters are washed with 500 μl of ice-cold binding buffer, dried and sealed in a polyethylene bag with 3.5 ml of scintillation fluid and counted for tritium in a Microbeta Jet scintillation counter. […] Data are analyzed by nonlinear least-squares regression using GraphPad Prism 3.02.

MT1 receptor [2] = molecular target: T1, MT1 receptor; assay: ERK phosphorylation assay, MT1; assay type: cell-based; design: expressed in transfected cells; conditions: HEK293 cells; isoquinolone 1 μM or 2-iodomelatonin 100 nM, 5 min; against unstimulated control cells
From the text: 3. ERK Phosphorylation Assay This assay indicates the ability of the novel compounds to activate MT1 or MT2 receptors by measuring downstream events of the activated receptor, in this case ERK phosphorylation. The amount of phosphorylated ERK1/2 was detected and quantified in western blots. The data in Table 2 is expressed as the fold stimulation against the unstimulated control cells. 6. Detection of ERK phosphorylation […] Stimulation was terminated by aspiration on ice and immediate lysis by 200 μl of 1× protein gel loading buffer. Lysates were denatured by boiling for 5 min and cooled at room temperature until loading. 30 μl of each lysate was separated on 12% SDS-PAGE and transferred to nitrocellulose membrane by electroblotting. Success of transfer was visualized by Ponceau S staining. All subsequent incubations were under gentle agitation (˜100 strokes/min). […] Primary antisera against phosphorylated- or total-ERK1/2 were incubated with the blocked membrane at an appropriate dilution (1:4000-1:2000) in Blotto for overnight at 4° C. The membrane was washed with fresh Blotto for 3 times of 15 min each, then incubated with secondary antiserum (horseradish peroxidase-conjugated anti-rabbit IgG) at the dilution of 1:1000 in 1×TBS for 1 h at room temperature. The membrane was quickly rinsed with excessive 1×TBS for 3 times, and followed by 4 washes of 1×TBS for 10 min. By the end, a premix of luminol-based chemiluminescence substrate solution was prepared (1 ml for every 8 cm^2 of membrane) and overlaid onto the washed membrane to incubate for 1 min. After removing excessive solution, the membrane was covered with saran wrap and an autograph with appropriate exposure was developed on X-ray film in dark room. The image was scanned and the band intensities quantified using ImageJ 1.34. Data was expressed as the percentage response of the vehicle-treated or untreated samples. Experiments were performed at least 3 times and the average responses±SEM were presented.

MT1 receptor [3] = molecular target: T1, MT1 receptor; assay: cAMP assay, MT1; assay type: cell-based; design: expressed in transfected cells; host or cells: COS-7 (monkey kidney fibroblast); conditions: inhibition of forskolin-stimulated cAMP production; MT1-expressing cells

T1 sequence (P48039 whole entry): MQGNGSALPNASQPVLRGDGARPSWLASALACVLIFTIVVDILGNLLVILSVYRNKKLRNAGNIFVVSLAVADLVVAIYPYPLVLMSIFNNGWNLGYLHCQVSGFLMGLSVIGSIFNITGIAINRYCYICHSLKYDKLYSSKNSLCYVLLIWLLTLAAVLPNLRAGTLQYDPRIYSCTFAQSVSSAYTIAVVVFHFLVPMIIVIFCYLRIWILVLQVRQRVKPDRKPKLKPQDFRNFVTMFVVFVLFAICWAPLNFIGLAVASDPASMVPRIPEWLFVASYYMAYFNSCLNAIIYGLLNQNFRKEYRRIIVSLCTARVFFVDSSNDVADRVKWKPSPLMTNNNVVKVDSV

Row | SMILES | MTT Assay MT1/293 % Viability ± SEM (MT1/293) [%] | MTT Assay MT2/293 % Viability ± SEM (MT2/293) [%] | Binding Assay MT1 logIC50 ± SEM (MT1 receptor [1]) | ERK Phosphorylation MT1 Fold Stim. (MT1 receptor [2]) [Fold] | cAMP Assay MT1 % Inh (MT1 receptor [3]) [%]
1 | COc1cccc(COc2cc3c(=O)n(C)ccc3cc2OC)c1 [IS521] | 89.8 ± 8.3 | 90.5 ± 11.7 | NSB | 3.80 | 19.4 ± 17.4
2 | COc1cccc(COc2cc3ccn(C)c(=O)c3cc2OC)c1 [IS044] | 112.6 ± 5.8 | 112.5 ± 3.8 | NSB | 3.25 | 72.9 ± 7.5
3 | COc1cc(COc2cc3c(=O)n(C)ccc3cc2OC)cc(OC)c1 [IS523] | 51.6 ± 1.1 | 46.2 ± 3.7 | NSB | 3.74 | 18.6 ± 14.7
4 | COc1cc2ccn(C)c(=O)c2cc1OCc1ccc(C(C)(C)C)cc1 [IS526] | 25.0 ± 4.4 | 24.7 ± 1.6 | NSB | – | 26.9 ± 24.1
5 | COc1cccc(COc2c(OC)ccc3c(=O)n(C)ccc23)c1 [IS527] | 57.1 ± 3.0 | 46.8 ± 0.2 | NSB | 2.47 | 28.3 ± 16.0
6 | COc1ccc2c(=O)n(C)ccc2c1OCc1ccc(C)cc1 [IS529] | 54.9 ± 2.5 | 48.5 ± 1.6 | NSB | 2.37 | 34.0 ± 17.4
7 | Cn1ccc2cc(OC(=O)c3ccccc3)c(OC(=O)c3ccccc3)cc2c1=O [IS039] | 108.5 ± 3.2 | 117.6 ± 9.0 | NSB | 2.75 | 8.8 ± 5.8
8 | COc1cc(COc2cc3ccn(C)c(=O)c3cc2OC)cc(OC)c1 [IS042] | 71.6 ± 4.7 | 56.3 ± 1.5 | NSB | 4.94 | 81.8 ± 6.2
9 | COc1cc(COc2c(OC)ccc3c(=O)n(C)ccc23)cc(OC)c1 [IS528] | 50.2 ± 5.7 | 42.4 ± 1.3 | NSB | 1.73 | 39.2 ± 12.0
